Series [1] concerns AR+LNCaP androgen-sensitive human prostate cancer cell line. Kind of series: MTT cytotoxicity assay in presence of 1 nM DHT, 48 h incubation. The format is cell-based. The conditions noted are these: for IC50: Homo sapiens; for Selectivity AR-/AR+: IC50 PC-3 / IC50 LNCaP. On the procedure: (§1) The antitumor properties of pyrazolylmethylene-2-thioxoimidazolidin-4-one derivatives (3a–p) against androgen-sensitive (AR^+LNCaP; ATCC CRL-1740, Accession: CVCL_0395) and androgen-insensitive (AR^-PC-3; ATCC CRL-1435, Accession: CVCL_D5ZS) human prostate cancer cell lines in addition to normal human lung fibroblast cell line (Wi38, Accession: CVCL_2759) were evaluated by MTT assay. AR^+LNCaP, AR^-PC-3, and Wi38 cell lines were purchased frozen in liquid nitrogen from Egyptian Company for Production of Vaccines, Sera and Drugs, Cairo, Egypt (VACSERA). Tumor cell lines were stored as monolayer cultures in DMEM supplemented with 10% FBS and 1% penicillin–streptomycin. MTT assay was carried out as described previously in the literature. In brief, AR^+LNCaP, AR^-PC-3, and Wi38 cells were cultured into 96-well plates containing 100 µL of culture medium per each well. […] A control containing only culture medium was also applied. The assay was performed in triplicate. The cells were incubated overnight to grow at 37 °C in 5% CO2. After removing the growth medium, 100 µL of MTT (0.4 mg/mL of PBS) were added. After 24 h of incubation, the supernatant was removed and 100 µL of DMSO (Sigma Aldrich, Germany) were then added to each sample. Absorbance at 550 nm was measured. The formula (Reading of extract/Reading of negative control) × 100 was applied to calculate the viability percentage. The IC50 value of test compounds (3a–p) was also determined using CPE measurements of normal Wi38 cells (normal human lung fibroblast cells). The MTT assay was repeated with the test compounds (3i, 3k, 3o, 3j, 3p, and 3m) using the three cell types which were stimulated by 1 nM DHT after 48 h of incubation. IC50 values were estimated using Graph Pad Prism computer software (International Scientific Community, San Diego, CA, USA) from linear regression analysis of the concentration–response curves plotted for each tested compound [36].
(§2) The assay was performed in the presence of dihydrotestosterone (1 nM DHT) for 48 h of incubation as previously described. DHT is a potent inducer of androgens that enhances prostate cancer disease progression.

The test system of series [2] is AR-PC-3 androgen-insensitive human prostate cancer cell line. Described as above. The format is cell-based. As for the experimental part:
as §1, §2

Series [3] concerns Wi38 normal human lung fibroblast cell line. The series is described as above. The format is cell-based. The conditions noted are these: WI-38, read-out: IC50 Wi38. As for the experimental part:
as §1, §2

Series [4] concerns active human caspase-3 in AR+LNCaP cells. The series is described as follows: Detection of active Caspase 3 in AR+LNCaP cell lysates (Invitrogen Elisa kit). The format is cell-based. Further details: Caspase 3 Conc. (Average): unit not given here. The settings on record: for active Caspase 3 fold change compared to untreated cells / induction of active caspase 3 as a percentage of the reference drug Enzalutamide: IC50 concentration; for active Caspase 3 fold change compared to untreated cells: 1 nM DHT, AR+LNCaP lysate; for induction of active caspase 3 as a percentage of the reference drug Enzalutamide: AR+LNCaP; for Caspase 3 fld / Caspase 3: LNCaP, supplement lab report; for Caspase 3 fld: fold of control; for Caspase 3 Conc. (Average): supplement ELISA read-out, average of two wells. As for the experimental part: Untreated AR^+LNCaP and Enzalutamide-treated AR^+LNCaP were used as negative and positive controls, respectively. AR^+LNCaP cells were cultured in 96-well plates at a cell density of 1 × 10^4 cells/well. Cells were then lysed with 50 µL lysis buffer/well supplemented with the Invitrogen Elisa kit for detection of active human caspase-3 (Invitrogen, Camarillo, CA, USA). Plates were frozen at −80 °C for 30 min and then thawed. The lysate was mixed with 2 Z-DEVD-R110 substrate and incubated at room temperature for 30 min. A fluorescence microplate reader (Tecan, Mainz-Kastel, Germany), was used to measure fluorescence via excitation at 496 nm and emission detection at 520 nm. Values were normalized with total protein content. Active caspase 3 accumulation was determined based on standard dilution series of Human Caspase-3 samples provided with the kit. […]

For series [5], the system named is AR+LNCaP androgen-sensitive human prostate cancer cell line. Kind of series: MTT in vitro cytotoxicity assay, 24 h incubation. The format is cell-based. The conditions noted are these: for IC50: Homo sapiens, MTT; for Selective Index Wi38/Lncap: ratio of IC50 values. As for the experimental part:
as §1
(§3) In vitro cytotoxicity assay was performed to elucidate the antitumor properties of the synthesized derivatives of pyrazolylmethylene-2-thioxoimidazolidin-4-one. […] The cytotoxicity assay was performed using MTT assay as described in the Materials and Methods Section 2.4.1. The test compounds were dissolved in DMSO as stock solutions (<0.5% (v/v)) and stored in the dark at −20 °C. The human prostate cancer cells and normal human lung fibroblast cells were subjected to variable doses of the compounds for 24 h.

Series [6] relates to AR-PC-3 androgen-insensitive human prostate cancer cell line. Kind of series: MTT in vitro cytotoxicity assay, 24 h incubation. It counts as cell-based. The conditions noted are these: for IC50: Homo sapiens, MTT; for Selective Index Wi38/PC-3: ratio of IC50 values. On the procedure: as §1, §3
Series [7] concerns Wi38 normal human lung fibroblast cell line. The series is described as follows: MTT in vitro cytotoxicity assay, 24 h incubation. It counts as cell-based. The settings on record: WI-38. As for the experimental part: as §1, §3
Series [8] deals with AR+LNCaP cells. The series is described as follows: Cell apoptosis assay (Annexin V-FITC, flow cytometry). The format is cell-based, human. The settings on record: IC50 concentration, 1 nM DHT, 24 h. As for the experimental part: Cell apoptosis assay was performed to ensure the efficacy of compounds 3i and 3k against the progression of AR^+LNCaP tumor cell growth in the presence of 1 nM DHT. Untreated AR^+LNCaP and Enzalutamide-treated AR^+LNCaP were used in this assay as negative and positive controls, respectively. AR^+LNCaP cells were precultured in 25 cm^2 flasks. Briefly, 1 nM DHT was then added to the growing cells. […] AR^+LNCaP cells were harvested and fixed with 70% (v/v) ethanol in FBS (Sigma-Aldrich, Germany), then maintained at 4 °C overnight. The cells were resuspended in FBS containing 0.1% (v/v) Triton X-100, 40 µg/mL […], and 0.1 mg/mL RNase then incubated in a dark chamber at 37 °C for 30 min. A flow-cytometer (Becton Dickinson, San Jose, CA, USA) supplemented with an argon ion laser at a wavelength of 488 nm was used to analyze the AR^+LNCaP cell apoptotic stages. Based on the protocol described by Ozgur et al. (2003), analysis of the data was implemented using Multicycle Software (Phoenix Flow Systems, San Diego, CA, USA; http://www.phoenixflow.com/index.html).
The active compounds 3i and 3k were further analyzed to evaluate their antitumor properties against the growth of the AR^+LNCaP prostate cancer cell line. […] Untreated AR^+LNCaP cells and Enzalutamide reference drug were also used as negative and positive controls in this assay, respectively.

Series [9] deals with AR+LNCaP cells. The series is described as follows: DNA content at cell cycle stages (Propidium Iodide flow cytometry). The format is cell-based, human. The settings on record: IC50 concentration, 1 nM DHT. On the procedure:
The amount of DNA contents of AR^+LNCaP cells stimulated with 1 nM DHT and treated with representative test compounds 3i and 3k at the different stages of the cell cycle were quantitatively evaluated as described previously. […] The Ab139418–Propidium Iodide Flow Cytometry Kit for Cell Cycle Analysis (ab139418, Abcam, Cambridge, UK) was employed for this assay following the procedures provided by the supplier.
Firstly, the ab139418-Propidium Iodide Flow Cytometry Kit for Cell Cycle Analysis (Bio vision, Boston, MA, USA) was used to quantify DNA contents at each cell cycle stage as an indicator of the cell cycle growth arrest.

Structures are written as SMILES.

As to `O=C1NC(=S)NC1=Cc1cn(-c2ccc(F)cc2)nc1-c1ccc(Cl)cc1` [Compound 3i, 5-((3-(4-Chlorophenyl)-1-(4-fluorophenyl)-1H-pyrazol-4-yl)methylene)-2-thioxoimidazolidin-4-one], the melting point was 168 to 170 °C. Also, in [1], the IC50 came out at 6.08 ± 0.04 µM and the “Selectivity AR-/AR+” value was determined as 2.6. The IC50 in [2] was 15.52 ± 0.12 µM. The CC50 in series [3] was determined as 21.93 ± 0.14 µM. Besides, in series [4], the “active Caspase 3 fold change compared to untreated cells” value (“active Caspase 3 fold change” below) was 4.7 fold, the “induction of active caspase 3 as a percentage of the reference drug Enzalutamide” value amounted to 71.4%, the “Caspase 3 fld” value was 4.667 and the “Caspase 3” value was determined as 358.9 pg/mL. Besides, the “Caspase 3 Conc. (Average)” value in series [4] came to 358.9. Also, in series [5], half-maximal inhibition (IC50) was put at 12.07 ± 0.09 µM and the “Selective Index Wi38/Lncap” value was 2.5. In [6], half-maximal inhibition (IC50) required 19.5 ± 0.21 µM and the “Selective Index Wi38/PC-3” value is on record as 1.5. This molecule yielded an IC50 in series [7] of 29.93 ± 0.12 µM. For the same molecule, in the series on AR+LNCaP cells [8], the “Early Apoptosis (%)” value was determined as 11.47%, the “Late Apoptosis (%)” value was determined as 7.55%, the “Necrotic Cells (%)” value was 2.77% and the “Total Apoptosis (%)” value is 21.79%. Further, in the series with AR+LNCaP cells [9], the “DNA Content (%) G0–G1” value is given as 58.33%, the “DNA Content (%) G2/M” value is 22.48% and the “DNA Content (%) S” value is reported as 19.19%.

For `O=C1NC(=S)NC1=Cc1cn(-c2ccc(C(F)(F)F)cc2)nc1-c1ccc(C(F)(F)F)cc1` [Compound 3p, 5-((1,3-Bis(4-(trifluoromethyl)phenyl)-1H-pyrazol-4-yl)methylene)-2-thioxoimidazolidin-4-one], the melting point lay in the range of 223 to 225 °C. For the same molecule, in series [1], the IC50 was 5.91 ± 0.13 µM and the “Selectivity AR-/AR+” value amounted to 2.7. Further, the IC50 in series [2] came to 15.2 ± 0.25 µM. Moreover, in series [3], the CC50 came to 20.18 ± 0.14 µM. Also, in series [4], the “active Caspase 3 fold change” value is given as 4.4 fold, the “induction of active caspase 3 as a percentage of the reference drug Enzalutamide” value stood at 66.6%, the “Caspase 3 fld” value is on record as 4.351 and the “Caspase 3” value was determined as 334.6 pg/mL. In [4], the “Caspase 3 Conc. (Average)” value stood at 334.6. Besides, in series [5], the IC50 came to 12.11 ± 0.08 µM and the “Selective Index Wi38/Lncap” value stood at 2.1. Further, in series [6], it took 23.2 ± 0.12 µM to reach half-maximal inhibition (IC50) and the “Selective Index Wi38/PC-3” value amounted to 1.0. The molecule also yielded an IC50 in series [7] of 25.35 ± 0.12 µM.

`O=C1NC(=S)NC1=Cc1cn(-c2ccc(F)cc2)nc1-c1ccc(C(F)(F)F)cc1` [Compound 3k, 5-((1-(4-Fluorophenyl)-3-(4-(trifluoromethyl)phenyl)-1H-pyrazol-4-yl)methylene)-2-thioxoimidazolidin-4-one]: the melting point lay within 210 to 212 °C. Further, in series [1], the IC50 is 5.22 ± 0.12 µM and the “Selectivity AR-/AR+” value worked out at 2.7. Also, the IC50 in series [2] was 13.9 ± 0.18 µM. Besides, the CC50 in series [3] was determined as 19.81 ± 0.07 µM. Besides, in series [4], the “active Caspase 3 fold change” value stood at 5.4 fold, the “induction of active caspase 3 as a percentage of the reference drug Enzalutamide” value is listed as 81.2%, the “Caspase 3 fld” value is given as 5.304 and the “Caspase 3” value was determined as 407.9 pg/mL. Besides, in series [4], the “Caspase 3 Conc. (Average)” value came to 407.9. For the same molecule, in [5], the IC50 came to 10.3 ± 0.14 µM and the “Selective Index Wi38/Lncap” value is 3.2. For the same molecule, in [6], the concentration for half-maximal inhibition (IC50) amounted to 22.5 ± 0.29 µM and the “Selective Index Wi38/PC-3” value stood at 1.5. Half-maximal inhibition in series [7] (IC50) was put at 32.81 ± 0.08 µM. In addition, in the series on AR+LNCaP cells [8], the “Early Apoptosis (%)” value came out at 12.11%, the “Late Apoptosis (%)” value came out at 16.89%, the “Necrotic Cells (%)” value was 6.02% and the “Total Apoptosis (%)” value came to 35.02%. Moreover, in the series with AR+LNCaP cells [9], the “DNA Content (%) G0–G1” value is reported as 65.21%, the “DNA Content (%) G2/M” value is listed as 19.18% and the “DNA Content (%) S” value was found to be 15.61%.

The values above are taken from article PMC11274643, “Design, Synthesis, Characterization, and Cytotoxicity of New Pyrazolylmethylene-2-thioxoimidazolidin-4-one Derivatives towards Androgen-Sensitive LNCaP Prostate Cancer Cells” (Biomolecules, 2024).
